According to ChEMBL document CHEMBL1201862, “PubChem BioAssay data set” (2004):
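In this assay, cells in 96-well plates receive the compound at five concentrations for 48 hours. Endpoints are linearly interpolated between the surrounding concentrations. Here, GI50 denotes the concentration required for 50% inhibition of growth.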 Activity calls are given as the source filed them. Rule as the data show it: active = GI50 up to about 1.1 µM and inactive = higher.

Key:
Experiment in all cases: NCI-60 cell line screen, 48 h
SN12C = system: SN12C
OVCAR-8 = system: OVCAR-8
SK-MEL-5 = system: SK-MEL-5
LOX IMVI = system: LOX IMVI
SNB-75 = system: SNB-75
HOP-62 = system: HOP-62
HCT-15 = system: HCT-15
CCRF-CEM = system: CCRF-CEM
SW-620 = system: SW-620
DU-145 = system: DU-145
RPMI-8226 = system: RPMI-8226
RXF 393 = system: RXF 393
NCI-H23 = system: NCI-H23
UO-31 = system: UO-31
Hs-578T = system: Hs-578T
A498 = system: A498
SR = system: SR
IGROV-1 = system: IGROV-1
HT-29 = system: HT-29
OVCAR-5 = system: OVCAR-5

Row | Compound | GI50 (SN12C) | GI50 (OVCAR-8) | GI50 (SK-MEL-5) | GI50 (LOX IMVI) | GI50 (SNB-75) | GI50 (HOP-62) | GI50 (HCT-15) [µM] | GI50 (CCRF-CEM) | GI50 (SW-620) | GI50 (DU-145) | GI50 (RPMI-8226) | GI50 (RXF 393) | GI50 (NCI-H23) | GI50 (UO-31) | GI50 (Hs-578T) | GI50 (A498) | GI50 (SR) | GI50 (IGROV-1) | GI50 (HT-29) | GI50 (OVCAR-5)
1 | C=CCNC1=C2C[C@@H](C)C[C@@H](OC)[C@H](OC(=O)CN(C)C)[C@H](C)/C=C(\C)[C@@H](OC(N)=O)[C@H](OC)/C=C\C=C(/C)C(=O)NC(=CC1=O)C2=O | 0.0689 µM (active) | 0.163 µM (active) | 0.0538 µM (active) | 0.0641 µM (active) | 0.114 µM (active) | 0.0604 µM (active) | 0.535 | 3.08 µM (inactive) | 0.0228 µM (active) | < 0.01 µM (active) | 0.832 µM (active) | 1.78 µM (inactive) | 0.043 µM (active) | 0.757 µM (active) | 13.3 µM (inactive) | 0.262 µM (active) | < 0.0113 µM (active) | 0.0942 µM (active) | < 0.01 µM (active) | 10.3 µM (inactive)
2 | CNC(=O)N(C)/N=N/CCCl | > 100 µM (inactive) | > 100 µM (inactive) | > 100 µM (inactive) | > 100 µM (inactive) | > 100 µM (inactive) | > 100 µM (inactive) | > 100 | > 100 µM (inactive) | > 100 µM (inactive) | > 100 µM (inactive) | > 100 µM (inactive) | > 100 µM (inactive) | > 100 µM (inactive) | > 100 µM (inactive) | > 100 µM (inactive) | > 100 µM (inactive) | > 100 µM (inactive) | > 100 µM (inactive) | > 100 µM (inactive) | > 100 µM (inactive)
3 | CC(=O)c1c2c(cc3c1CC1(Cc4ccccc4C1=O)C3)CCC2 (stereo not given) | 21.5 µM (inactive) | 18 µM (inactive) | 10.3 µM (inactive) | 19.7 µM (inactive) | 32 µM (inactive) | 30.4 µM (inactive) | 32.1 | 16.8 µM (inactive) | 32.3 µM (inactive) | 34.7 µM (inactive) | 5.66 µM (inactive) | 12 µM (inactive) | 16 µM (inactive) | 21.2 µM (inactive) | 28.8 µM (inactive) | 17.5 µM (inactive) | 15.3 µM (inactive) | 16.3 µM (inactive) | 20.5 µM (inactive) | 51.2 µM (inactive)
4 | O=[N+]([O-])c1cc2ccc(N(CCO)CCO)nc2nc1N(CCO)CCO | > 100 µM (inactive) | > 100 µM (inactive) | > 100 µM (inactive) | > 100 µM (inactive) | > 100 µM (inactive) | > 100 µM (inactive) | > 100 | > 100 µM (inactive) | > 100 µM (inactive) | > 100 µM (inactive) | > 100 µM (inactive) | > 100 µM (inactive) | > 100 µM (inactive) | > 100 µM (inactive) | > 100 µM (inactive) | > 100 µM (inactive) | 46.2 µM (inactive) | > 100 µM (inactive) | > 100 µM (inactive) | > 100 µM (inactive)
5 | CN(CC(=O)O)Cc1c(O)c(Cl)cc(Cl)c1Cl | 47 µM (inactive) | 29.2 µM (inactive) | 24.7 µM (inactive) | 14 µM (inactive) | 92.5 µM (inactive) | 29 µM (inactive) | 21.8 | 5.13 µM (inactive) | 40.5 µM (inactive) | 34.4 µM (inactive) | 37.4 µM (inactive) | 76.4 µM (inactive) | 95.3 µM (inactive) | 23.2 µM (inactive) | > 100 µM (inactive) | 46.1 µM (inactive) | 5.55 µM (inactive) | 48.1 µM (inactive) | 33.2 µM (inactive) | 26.5 µM (inactive)
6 | O=C1C=C(Nc2nc(O)cc(C(=O)O)n2)c2ccccc2C1=O | > 100 µM (inactive) | > 100 µM (inactive) | > 100 µM (inactive) | > 100 µM (inactive) | > 100 µM (inactive) | > 100 µM (inactive) | > 100 | > 100 µM (inactive) | > 100 µM (inactive) | > 100 µM (inactive) | > 100 µM (inactive) | > 100 µM (inactive) | > 100 µM (inactive) | > 100 µM (inactive) | > 100 µM (inactive) | > 100 µM (inactive) | > 100 µM (inactive) | > 100 µM (inactive) | > 100 µM (inactive) | > 100 µM (inactive)
7 | Nc1nc(OCC2CCCCC2)c2nc[nH]c2n1 | 10.2 µM (inactive) | 16.5 µM (inactive) | 15.2 µM (inactive) | 8.75 µM (inactive) | 16.1 µM (inactive) | 13.4 µM (inactive) | 8.05 | 11.2 µM (inactive) | 23.3 µM (inactive) | 9.77 µM (inactive) | 11.1 µM (inactive) | 9.51 µM (inactive) | 17.7 µM (inactive) | 7.18 µM (inactive) | 8.39 µM (inactive) | 13.7 µM (inactive) | 6.85 µM (inactive) | 5 µM (inactive) | 12.3 µM (inactive) | 13.6 µM (inactive)
8 | C=C1C(=O)O[C@@H]2C[C@@]3(C)CCCC(=C)[C@@H]3C[C@H]12.C=C1C(=O)O[C@@H]2C[C@@]3(C)CCC[C@H](C)C3=C[C@H]12 | 1.69 µM (inactive) | 1.6 µM (inactive) | 1.6 µM (inactive) | 2.9 µM (inactive) | 1.91 µM (inactive) | 2.3 µM (inactive) | 1.55 | 1.51 µM (inactive) | 1.64 µM (inactive) | 2.77 µM (inactive) | 1.12 µM (inactive) | 1.56 µM (inactive) | 2 µM (inactive) | 1.59 µM (inactive) | 2.92 µM (inactive) | 1.71 µM (inactive) | 0.494 µM (active) | 2.72 µM (inactive) | 2.12 µM (inactive) | 4.82 µM (inactive)
9 | O=C(C(=O)n1ccc2ccccc21)n1ccc2ccccc21 | > 100 µM (inactive) | 59.7 µM (inactive) | > 100 µM (inactive) | > 100 µM (inactive) | 10.7 µM (inactive) | 99.3 µM (inactive) | > 100 | 38.7 µM (inactive) | > 100 µM (inactive) | > 100 µM (inactive) | > 100 µM (inactive) | 88.7 µM (inactive) | 75.3 µM (inactive) | > 100 µM (inactive) | 27.5 µM (inactive) | > 100 µM (inactive) | 40.1 µM (inactive) | 2.12 µM (inactive) | > 100 µM (inactive) | > 100 µM (inactive)
10 | O=C(NCCN1C(=O)CN=C(c2ccc(Cl)cc2)c2cc(Cl)ccc21)OCc1ccccc1 | 14.3 µM (inactive) | 16.3 µM (inactive) | 15.2 µM (inactive) | 17.4 µM (inactive) | 18.1 µM (inactive) | 19.8 µM (inactive) | 13.4 | 11.7 µM (inactive) | 13.6 µM (inactive) | 18.2 µM (inactive) | 19.7 µM (inactive) | 10.8 µM (inactive) | 14.1 µM (inactive) | 10.9 µM (inactive) | 17.4 µM (inactive) | 11.2 µM (inactive) | 9.48 µM (inactive) | 15.3 µM (inactive) | 11.8 µM (inactive) | 19.2 µM (inactive)
11 | CC(C)=CCC[C@@H](C)c1c2nc3ccccc3sc-2c(C)c(=O)c1O | 5.74 µM (inactive) | 2.94 µM (inactive) | 3.1 µM (inactive) | 4.94 µM (inactive) | 5.53 µM (inactive) | 4.36 µM (inactive) | 2.32 | 2.67 µM (inactive) | 4.86 µM (inactive) | 17.5 µM (inactive) | 4.11 µM (inactive) | 9.35 µM (inactive) | 5.93 µM (inactive) | 3.55 µM (inactive) | 9.66 µM (inactive) | 9.84 µM (inactive) | 2.23 µM (inactive) | 3.44 µM (inactive) | 2.79 µM (inactive) | 16.7 µM (inactive)
12 | COC(=O)C1=C(C(=O)OC)C2OC1c1cc3ccccc3cc12 | 16.4 µM (inactive) | 4.49 µM (inactive) | 16.9 µM (inactive) | 15.2 µM (inactive) | 23.3 µM (inactive) | 17.6 µM (inactive) | 2.18 | 1.69 µM (inactive) | 1.96 µM (inactive) | 7.78 µM (inactive) | 2.33 µM (inactive) | 1.77 µM (inactive) | 5.96 µM (inactive) | 1.54 µM (inactive) | 18.2 µM (inactive) | 21.1 µM (inactive) | 1.88 µM (inactive) | 5.01 µM (inactive) | 6.3 µM (inactive) | 4.88 µM (inactive)
13 | C/C1=C\[C@H](C)C[C@H](C)OC(=O)C[C@H](c2ccc(O)cc2)NC(=O)[C@@H](Cc2c(Br)[nH]c3ccccc23)N(C)C(=O)[C@H](C)NC(=O)[C@@H](C)C1 [JASPAMIDE] | 0.361 µM (active) | 0.381 µM (active) | 0.158 µM (active) | 0.122 µM (active) | 0.084 µM (active) | 0.329 µM (active) | 0.834 | 0.0209 µM (active) | 0.152 µM (active) | 0.0594 µM (active) | 0.218 µM (active) | 0.0369 µM (active) | 0.467 µM (active) | 0.192 µM (active) | 0.0611 µM (active) | 0.0224 µM (active) | 0.0578 µM (active) | 0.114 µM (active) | 0.173 µM (active) | 0.457 µM (active)
14 | O=c1nc(Oc2c(F)c(F)c(F)c(F)c2F)ccn1C1OC(CO)C(O)C1O (stereo not given) | > 100 µM (inactive) | > 100 µM (inactive) | > 100 µM (inactive) | > 100 µM (inactive) | > 100 µM (inactive) | > 100 µM (inactive) | > 100 | > 100 µM (inactive) | > 100 µM (inactive) | > 100 µM (inactive) | > 100 µM (inactive) | > 100 µM (inactive) | > 100 µM (inactive) | > 100 µM (inactive) | > 100 µM (inactive) | > 100 µM (inactive) | 58.1 µM (inactive) | > 100 µM (inactive) | > 100 µM (inactive) | > 100 µM (inactive)
